Data on 23 compounds can be found in US20210139484A1, “DIHYDROISOQUINOLINE-2(1H)-CARBOXAMIDE AND RELATED COMPOUNDS AND THEIR USE IN TREATING MEDICAL CONDITIONS” (GOSSAMER BIO SERVICES, INC., priority 2018, published 2021).

The first assay concerns the target T1, human HPK1 protein (Homo sapiens, UniProt Q92918).
T1 construct: recombinant human HPK1 protein (a.a. 1-346) was expressed in Sf9 insect cells; GST (N); purchased Signalchem M23-11G; host or cells: Sf9 insect cells (baculovirus)
T1 sequence (Q92918 1-346): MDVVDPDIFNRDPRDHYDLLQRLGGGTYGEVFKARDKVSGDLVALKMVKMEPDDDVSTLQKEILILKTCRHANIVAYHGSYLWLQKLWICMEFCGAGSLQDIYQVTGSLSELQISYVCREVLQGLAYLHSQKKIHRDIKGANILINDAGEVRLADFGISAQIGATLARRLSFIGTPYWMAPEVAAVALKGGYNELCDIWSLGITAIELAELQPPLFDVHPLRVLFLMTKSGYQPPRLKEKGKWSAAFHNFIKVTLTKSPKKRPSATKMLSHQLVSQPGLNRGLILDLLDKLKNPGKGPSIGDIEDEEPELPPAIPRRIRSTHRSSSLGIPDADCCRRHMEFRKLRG
The assay is described as follows: Human HPK1 protein TR-FRET assay. It is filed as biochemical. The settings on record: 1 mM ATP, Table 19. An outline of the steps: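 Read-out was TR-FRET using Eu-labeled anti-phospho-CREB (Ser133) antibody, with the 665/615 nm signal ratio normalised to DMSO-only wells and fitted by a 4-parameter logistic model for IC50. Reactions held 10 nM Sf9-expressed GST-HPK1 (a.a. 1-346), 100 nM CREBtide and 1 mM ATP, run 60 minutes at room temperature, pH 7.5.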
Background: In TR-FRET formats the signal depends on donor and acceptor labels being close together.
With `Cc1cc2c(Oc3ccc4c(c3)CN(C(=O)Nc3cnc(OC5CCN(C)CC5O)c(C(F)(F)F)c3)CC4C)ccnc2[nH]1` (centres unmarked) [IV-41], the IC50 (usually the concentration that inhibits the measured activity by half) is under 0.5 µM. With `CCN1CCN(Cc2ccc(NC(=O)N3CCc4ccc(Oc5ccnn6cc(F)cc56)cc4C3)cc2C(F)(F)F)CC1` [II-22], the IC50 was under 0.5 µM. The compound `CCN1CCN(Cc2ccc(NC(=O)N3Cc4cc(Oc5ccnc6[nH]c(C)cc56)c(F)cc4C(C)C3)cc2C(F)(F)F)CC1` (centres unmarked) [IV-28] registered an IC50 of under 0.5 µM.

Turning to `CCN1CCN(Cc2ccc(NC(=O)N3Cc4cc(Oc5ccnc6[nH]ccc56)ccc4C4(CC4)C3)cc2C(F)(F)F)CC1` [IV-23], the IC50 was under 0.5 µM. Take `CCN1CCN(Cc2ccc(NC(=O)N3CCc4ccc(Oc5cc(NC(=O)C6CC6)ncn5)cc4C3)cc2C(F)(F)F)CC1` [II-10]: the IC50 was under 0.5 µM. In turn, `CCN1CCN(Cc2ccc(NC(=O)N3Cc4cc(Oc5ccnc6[nH]c(C)cc56)cnc4C(C)C3)cc2C(F)(F)F)CC1` (centres unmarked) [VII-3] came in with an IC50 of under 0.5 µM. Consider `CCN1CCN(Cc2ccc(NC(=O)N3CCc4ccc(Oc5ccnc6[nH]ccc56)c(C)c4C3)cc2C(F)(F)F)CC1` [III-2], for which the IC50 is under 0.5 µM. The compound `Cc1cc2c(Oc3cnc4c(c3)CN(C(=O)Nc3cnc(OC5CCN(C)CC5)c(C(F)(F)F)c3)CC4C)ccnc2[nH]1` (single isomer, unassigned) [VII-7] showed a concentration for half-maximal inhibition (IC50) of under 0.5 µM.

In turn, `CCN1CCN(Cc2ccc(NC(=O)N3Cc4cc(Oc5ccnc6[nH]ncc56)cnc4C(C)C3)cc2C(F)(F)F)CC1` (centres unmarked) [VII-16] came in with a half-maximal inhibitory concentration (IC50) of under 0.5 µM. The compound `CCN1CCN(Cc2ccc(NC(=O)N3CCc4ccc(Oc5ccnc(C#N)c5)cc4[C@@H]3C)cc2C(F)(F)F)CC1` [V-11] displayed a half-maximal inhibitory concentration (IC50) of 0.5 to 5 µM. The same measure, in the same setting: the figure for `CCN1CCN(Cc2ccc(NC(=O)N3CCc4ccc(Oc5ncnn6cc(C)cc56)cc4C3)cc2C(F)(F)F)CC1` [II-7] is under 0.5 µM.

The assay is the same for the next values; noted with them: 1 mM ATP, Table 20.
As for `CCN1CCN(Cc2ccc(NC(=O)N3CCc4ccc(Oc5c(F)cnc6[nH]c(-c7cnn(C)c7)cc56)cc4[C@@H]3C)cc2C(F)(F)F)CC1` [XII-2], the IC50 was under 0.5 µM.

As to `C[C@@H]1CN(C(=O)Nc2ccc(CN3CCN(C)CC3)c(C(F)(F)F)c2)Cc2cc(Oc3ccnc4[nH]c(CO)cc34)cnc21` [XIV-75], the IC50 was under 0.5 µM. Compound `CC[C@H]1CN(C(=O)Nc2ccc(CN3CCN(C)CC3)c(C(F)(F)F)c2)Cc2cc(Oc3ccnc4[nH]c(CO)cc34)cnc21` [XIV-46] had an IC50 of under 0.5 µM. In turn, `CC[C@H]1CN(C(=O)Nc2ccc(CN3CCNCC3)c(C(F)(F)F)c2)Cc2cc(Oc3ccnc4[nH]c(C5CC5)cc34)cnc21` [XIV-58] had an IC50 of under 0.5 µM.

In turn, `CC[C@@H]1CN(C(=O)Nc2cnc(O[C@@H]3CCN[C@H](C)C3)c(C(F)(F)F)c2)Cc2cc(Oc3ccnc4[nH]c(C)cc34)cnc21` [XIV-69] gave an IC50 of under 0.5 µM. As for `CN1CCN(Cc2ccc(NC(=O)N3Cc4cc(Oc5ccnc6[nH]c(C(=O)N(C)C)cc56)ccc4C(C(F)(F)F)C3)cc2C(F)(F)F)CC1` (centres unmarked) [XVIII-13], the concentration for half-maximal inhibition (IC50) is under 0.5 µM.

`CC[C@@H]1CN(C(=O)Nc2ccc(CN3CCN(C)CC3)c(C(F)F)c2)Cc2cc(Oc3ccnc4[nH]c(C5(O)COC5)cc34)ccc21` [XV-14] gave an IC50 of under 0.5 µM.

`CC[C@@H]1CN(C(=O)Nc2cnc(CN3CCN(CC)CC3)c(C(F)(F)F)c2)Cc2cc(Oc3ccnc4[nH]ccc34)cnc21` [XIV-9] yielded an IC50 of under 0.5 µM.

Turning to `CCN1CCN(Cc2ccc(NC(=O)N3Cc4cc(Oc5ccnc6c5CCC(=O)N6)cnc4C(C)C3)cc2C(F)(F)F)CC1` (single isomer, unassigned) [XIV-1], the IC50 is under 0.5 µM. In the case of `CC[C@H]1CN(C(=O)Nc2ccc(CN3CCN(C)CC3)c(C(F)(F)F)c2)Cc2cc(Oc3ccnc4[nH]c(-c5noc(C)n5)cc34)cnc21` [XIV-133], the IC50 was under 0.5 µM.

The compound `CC[C@@H]1CN(C(=O)Nc2ccc(CN3CCN(CCO)CC3)c(C(F)F)c2)Cc2cc(Oc3ccnc4[nH]c(C5CC5)cc34)ccc21` [XV-24] gave an IC50 of under 0.5 µM. For `O=C(Nc1ccc(CN2CCNCC2)c(C(F)(F)F)c1)N1CCc2ccc(Oc3c(F)cnc4[nH]c(C5(O)CC5)cc34)cc2C1` [XVIII-5], the IC50 is under 0.5 µM.
